Assay results reported in patent publication US11684599B2, “Very-long-chain polyunsaturated fatty acids, elovanoid hydroxylated derivatives, and methods of use” (Board of Supervisors of Louisiana State University and …, priority 2017, dated 2023).

Tests used:
ARPE-19 cells = assay: UOS-induced apoptosis in ARPE-19 cells (Hoechst-positive pyknotic cells); format: cell-based, human; details: for protection against UOS: free fatty acids, ARPE-19 cells; for UOS-induced apoptosis: 200 nM; for UOS-induced apoptotic cell death: concentration-dependent 50-500 nM, highest inhibition at 500 nM, lowest at 50 nM
Description: FIGS. 6A and 6B depicts immunostaining of primary human RPE cells using specific markers ZO-1 (Zona occludens-1), RPE65, MITF (Micro-ophtalmia-associated Transcription Factor) and β-catenin, as well as light microscopy depicting primary human RPE cell morphology at different passages in culture. ARPE-19 cells were grown and maintained in T-75 mM flasks in DMEM F-12 medium containing 10% FBS and incubated at 37° C. with a constant supply of 5% CO2. Cells at 75-80% confluence (72 h growth in DMEM/F12+10% FBS) in 6-well plates were serum-starved for 8 h before exposure. […] The serum-starved cells were treated with TNF-α (Sigma-Aldrich, St. Louis, Mo.) (10 ng/ml) and H2O2 (600 μM) to induce oxidative stress and challenged with increasing concentrations (50-500 nM) of VLC-PUFA (C32:6n3 and C34:6n3) simultaneously with oxidative stress for 16 h (apoptosis) and 6 h (Western-blot) before detection of apoptosis and harvesting for protein analysis. In some experiments, DHA at a concentration of 100 nM and 15-LOX-1 inhibitor PD146176 at a concentration of 1 μM was added to treat the RPE cells under stress. Cell extracts were made and protein concentrations adjusted by Bio-Rad (Hercules, Calif.) protein reagent and used for Western blot analysis. To assess cell death, hRPE and ARPE-19 cells were fixed with methanol for 15 mins, washed with 1×PBS then loaded with 2 μM Hoechst dissolved in a Locke's solution (Promega) and incubated for another 15 mins before imaging. Cells were then viewed by using a Zeiss LSM 510 confocal microscope under UV fluorescence. Images were recorded and cell apoptosis was assessed by using an automated unbiased method.

[1] = system: rats with middle cerebral artery occlusion (MCAo); assay: Ex vivo MRI (T2WI) lesion, core and penumbra volumes after MCAo; format: in vivo, rat; details: day 7, compared to CSF-treated group
Description: (§1) Male Sprague-Dawley rats (Charles River Lab., Wilmington, Mass.) weighing 280-340 g were fasted overnight but allowed free access to water. Atropine sulfate (0.5 mg/kg, i.p.) was injected 10 mins before anesthesia. Anesthesia was induced with 3% isoflurane in a mixture of 70% nitrous oxide and 30% oxygen. All rats were orally intubated and mechanically ventilated. During ventilation, the animals were paralyzed with pancuronium bromide (0.6 mg/kg, i.p.). The catheters were implanted into the right femoral artery and vein for the blood sampling and infusion of drug. Serial analyses of arterial blood gases, plasma glucose, arterial blood pressure and heart beating rate were conducted before and during surgical procedure. Rectal (CMA/150 Temperature Controller, CMA/Microdialysis AB, Stockholm, Sweden) and cranial (temporalis muscle; Omega Engineering, Stamford, Conn.) temperatures were closely monitored before, during and after MCAo. Rectal temperature and body weight were monitored daily until sacrifice.
(§2) Rats underwent 2 h of right middle cerebral artery occlusion (MCAo) by an intraluminal-filament. In brief, the right common carotid artery (CCA) bifurcation was exposed through a midline neck incision and the occipital artery branches of the external carotid artery were isolated, ligated and dissected. After careful isolation of the internal carotid artery (ICA), a 3-0 monofilament coated with poly-L-lysine was advanced through the ICA to the MCA until mild resistance was felt. The neck incision was closed with a silk suture and the animals were then allowed to recover. After 2 h of MCAo, rats were re-anesthetized with the same anesthetic combination. Temperature probes were re-inserted, and intraluminal sutures were carefully removed. The animals given free access to food and water for 7 days.
(§3) Thirty minutes after suture removal, a brain infusion cannula was implanted into the right lateral ventricle for treatment administration in each rat. Rats were anesthetized with 3% isoflurane and were secured to a stereotaxic apparatus with skull leveled between bregma and lambda. A sterile stainless steel cannula (5-mm long) was implanted into the lateral ventricle using the stereotaxic coordinates (0.2 mm caudal to bregma, 2 mm lateral to midline, and 5 mm below the dura). Cannulas were removed after treatment was completed.
Elovanoids (ELV) as sodium salts (Na) or methyl esters (Me) were dissolved in artificial cerebral spinal fluid (CSF) and administered into right lateral ventricle 1 hour after 2 h of MCAo. The following ELVs were used: ELV-N32-Na, ELV-N32-Me, ELV-N34-Na and ELV-N34-Me (5 μg/[…]) or CSF (50 μl). All treatments were administered by a researcher blinded to the treatment groups. […]

[2] = system: rats with middle cerebral artery occlusion (MCAo); assay: Immunohistochemistry (NeuN, GFAP, SMI-71, IgG) after MCAo; format: in vivo, rat; details: for IgG staining intensity / IgG staining in the cortex: 7 days; for IgG staining intensity: compared with CSF-treated group; for IgG immunoreactivity in subcortex / IgG immunoreactivity in whole hemisphere (total): versus the vehicle group
Description: as §1, §2, §3
Elovanoids (ELV) as sodium salts (Na) or methyl esters (Me) were dissolved in artificial cerebral spinal fluid (CSF) and administered into right lateral ventricle 1 hour after 2 h of MCAo. The following ELVs were used: ELV-N32-Na, ELV-N32-Me, ELV-N34-Na and ELV-N34-Me (5 μg/[…]) or CSF (50 μl). All treatments were administered by a researcher blinded to the treatment groups.
Brain edema was measured by the differences of ipsi- and contra-lateral hemispheres. Immunohistochemical procedures were performed on the adjacent sections to identify specific vascular and neuronal elements in the ischemic core and penumbra. The following antibodies were used: rat blood-brain barrier (SMI-71, BioLegend, San Diego, Calif.) as a vascular marker; glial fibrillary acid protein (GFAP, Agilent Tech. Santa Clara, Calif.) to label reactive astrocytes; and neuron-specific nuclear protein (NeuN, Chemicon/Millipore, Billerica, Mass.) and biotinylated anti-rat immunoglobulin (IgG) antibody (BioLegend, San Diego, Calif.) to detect BBB breakdown. The number of positive cells and immunopositive vessels were counted in the cortex and striatum at the level of the central lesion (bregma level −0.3 mm). Data were expressed as numbers of positive cells and vessels per high-power microscopic field (magnification ×40).
The images of sections were obtained using confocal laser microscope (LSM510, Carl Zeiss MicroImaging, Irvine, Calif.) following specific experimental protocols. The images were acquired with dimension 212.3 μm×212.3 μm using Zen software (Carl Zeiss MicroImaging). Image analysis was conducted using ImageJ software. […]

Compound	protection against UOS (ARPE-19 cells)	reduction of total lesion volume [1] [%]	IgG staining intensity [2]	UOS-induced apoptosis (ARPE-19 cells)	UOS-induced apoptotic cell death (ARPE-19 cells)	IgG staining in the cortex [2]	IgG immunoreactivity in subcortex [2]	IgG immunoreactivity in whole hemisphere (total) [2]
CC/C=C\C/C=C\C/C=C\C/C=C\C/C=C\C/C=C\CCCCCCCCCCCCC(=O)O [32:6n3, (14Z,17Z,20Z,23Z,26Z,29Z)-dotriaconta-14,17,20,23,26,29-hexaenoic acid]	elicit protection against UOS	–	–	–	–	–	–	–
CC/C=C\C/C=C\C/C=C\C/C=C\C/C=C\C/C=C\CCCCCCCCCCCCCCC(=O)O [34:6n3, (16Z,19Z,22Z,25Z,28Z,31Z)-tetratriaconta-16,19,22,25,28,31-hexaenoic acid]	elicit protection against UOS	–	–	–	–	–	–	–
CC/C=C\C[C@H](O)\C=C/C=C/C=C/[C@H](O)C/C=C\C/C=C\CCCCCCCCCCCCC(=O)OC [ELV-N32-Me, methyl (14Z,17Z,20R,21E,23E,25Z,27S,29Z)-20,27-dihydroxydotriaconta-14,17,21,23,25,29-hexaenoate]	–	56	similar	–	–	–	–	–
CC/C=C\C[C@H](O)\C=C/C=C/C=C/[C@H](O)C/C=C\C/C=C\CCCCCCCCCCCCC(=O)[O-].[Na+] [ELV-N32-Na, sodium (14Z,17Z,20R,21E,23E,25Z,27S,29Z)-20,27-dihydroxydotriaconta-14,17,21,23,25,29-hexaenoate]	–	60	similar	attenuation of apoptosis	attenuated	–	–	–
CC/C=C\C[C@H](O)\C=C/C=C/C=C/[C@H](O)C/C=C\C/C=C\CCCCCCCCCCCCCCC(=O)OC [ELV-N34-Me, methyl (16Z,19Z,22R,23E,25E,27Z,29S,31Z)-22,29-dihydroxytetratriaconta-16,19,23,25,27,31-hexaenoate]	–	91	–	–	attenuated	significantly less IgG staining	significantly reduced	significantly reduced
CC/C=C\C[C@H](O)\C=C/C=C/C=C/[C@H](O)C/C=C\C/C=C\CCCCCCCCCCCCCCC(=O)[O-].[Na+] [ELV-N34-Na, sodium (16Z,19Z,22R,23E,25E,27Z,29S,31Z)-22,29-dihydroxytetratriaconta-16,19,23,25,27,31-hexaenoate]	–	99	–	attenuation of apoptosis	–	significantly less IgG staining	significantly reduced	significantly reduced
